Where two headings read alike, the source gives them in different places.
Tests used:
CAKI-1 = test: NCI 60 cell lines, SRB assay: CAKI-1; format: cell-based, human; settings: CAKI-1 (Renal Cancer), 48 hours
Method: The human tumor cell lines were grown in RPMI 1640 medium containing 5% fetal bovine serum (FBS) and 2 mM L-glutamine. The cells were inoculated into 96 well microtiter plates in 100 μL volumes at plating densities ranging from 5000 to 40000 cells/well depending on the doubling time of each individual cell line. After cell inoculation, the microtiter plates were incubated at 37° C., 5% CO2, 95% air, and 100% relative humidity for 24 hours prior to addition of the test compound. The following day, two plates of each cell line were fixed in situ with TCA to represent a measurement of cell population for each cell line at the time of sample addition (Tz). Each of the test compounds was dissolved in dimethyl sulfoxide at 400-times the desired final maximum test concentration, and the resulting solutions were stored frozen prior to use. At the time of sample addition, an aliquot of frozen concentrate was thawed and diluted to twice the desired final maximum test concentration with complete medium containing 50 μg/mL gentamicin. Additional four 10-fold serial dilutions were prepared to provide a total of five sample concentrations plus control. Aliquots of 100 μL of these different concentrations were added to the appropriate microtiter wells already containing 100 μL of medium, making up the required final sample concentrations. […] Bound stain was subsequently solubilized with 10 mM trizma base, and the absorbance was read on an automated plate reader at a wavelength of 515 nm. […] Using the seven absorbance measurements [time zero (Tz), control growth (C), and test growth in the presence of drug at the five concentration levels (Ti)], the percentage growth was calculated at each of the sample concentration levels. […] The test compound concentration resulting in total growth inhibition was calculated from Ti=Tz. […] In the event when the effect was not reached or was exceeded, the value for the respective parameter was expressed as greater or less than the maximum or minimum concentration tested.

HOP-92 = test: NCI 60 cell lines, SRB assay: HOP-92; settings: for CC50: read-out: LC50
K-562 = test: cells; settings: Homo sapiens, K562, 48 h; for CC50: read-out: LC50
MOLT-4 = test: cells; settings: Homo sapiens, MOLT-4, 48 h; for CC50: read-out: LC50
SR = test: cells; settings: Homo sapiens, 48 h
COLO 205 = test: cells; settings: Homo sapiens, COLO 205, 48 h; for CC50: read-out: LC50
MALME-3M = test: cells; settings: Homo sapiens, 48 h; for CC50: read-out: LC50
SK-MEL-2 = test: cells; settings: Homo sapiens, SK-MEL-2, 48 h
SK-MEL-5 = test: cells; settings: Homo sapiens, SK-MEL-5, 48 h; for CC50: read-out: LC50
IGROV1 = test: cells; settings: Homo sapiens, IGROV-1, 48 h
786-0 = test: cells; settings: Homo sapiens, 786-0, 48 h; for CC50: read-out: LC50
ACHN = test: cells; settings: Homo sapiens, 48 h; for CC50: read-out: LC50
RXF 393 = test: cells; settings: Homo sapiens, RXF 393, 48 h
SN12C = test: cells; settings: Homo sapiens, 48 h; for CC50: read-out: LC50
PC-3 = test: cells; settings: Homo sapiens, PC-3, 48 h
MDA-MB-231/ATCC = test: cells; settings: Homo sapiens, MDA-MB-231, 48 h; for CC50: read-out: LC50
BT-549 = test: cells; settings: Homo sapiens, BT-549, 48 h; for CC50: read-out: LC50
[1] = HOP-92 (Non-Small Cell Lung Cancer), 48 hours, SRB

Row | SMILES | TGI (HOP-92; [1]) [nM] | GI50 (K-562) [nM] | CC50 (K-562) [nM] | GI50 (MOLT-4) [nM] | CC50 (MOLT-4) [nM] | GI50 (SR) [nM] | GI50 (COLO 205) [nM] | CC50 (COLO 205) [nM] | GI50 (MALME-3M) [nM] | CC50 (MALME-3M) [nM] | GI50 (SK-MEL-5) [nM] | CC50 (SK-MEL-5) [nM] | GI50 (786-0) [nM] | CC50 (786-0) [nM] | GI50 (ACHN) [nM] | CC50 (ACHN) [nM] | GI50 (SN12C) [nM] | CC50 (SN12C) [nM] | GI50 (MDA-MB-231/ATCC) [nM] | CC50 (MDA-MB-231/ATCC) [nM] | other results
1 | CN(C)c1cccc2c(S(=O)(=O)NCCCCCCCCCCOc3ccc4c(c3)[N+]([O-])=C3C4=C[C@@]45NC(=O)C6(CCCN6C4=O)CC5C3(C)C)cccc12 (stereo partly drawn) [Dansyl Analogue] | 867 |  |  |  |  |  |  |  |  |  |  |  |  |  |  |  |  |  |  |  | GI50 (CAKI-1): 426 nM; TGI (CAKI-1): 2790 nM; CC50 (CAKI-1; read-out: LC50 (the source's name)): 20800 nM; GI50 (HOP-92; [1]): 224 nM; CC50 (HOP-92; [1]): 12700 nM
2 | [2H]On1c2c(c3ccc4c(c31)C=CC(C)(C)O4)C(OC([2H])([2H])[2H])[C@@]13NC(=O)C4(CCCN4C1=O)CC3C2(C)C (stereo partly drawn) [Deuterated Methanol Adduct] | 1300 | 576 | > 100000 | 229 | 8560 | 235 | 336 | 4450 | 174 | 5090 | 1410 | 5230 | 1200 | 5020 | 1270 | 5030 | 1120 | 4820 | 538 | 4320 | CC50 (SR; read-out: LC50): 9370 nM; GI50 (SK-MEL-2): 901 nM; CC50 (SK-MEL-2; read-out: LC50): 5390 nM; GI50 (IGROV1): 743 nM; CC50 (IGROV1; read-out: LC50): 4680 nM; GI50 (RXF 393): 283 nM; CC50 (RXF 393; read-out: LC50): 2050 nM; GI50 (PC-3): 619 nM; CC50 (PC-3; read-out: LC50): 5120 nM; GI50 (BT-549): 598 nM; CC50 (BT-549): 4690 nM; GI50 (HOP-92; Homo sapiens, HOP-92, 48 h): 222 nM; CC50 (HOP-92; Homo sapiens, HOP-92, 48 h): 4620 nM
3 | Cc1cc(C)cc(-c2ccc3c(c2)[N+]([O-])=C2C3=C[C@@]34NC(=O)C5(CCCN5C3=O)CC4C2(C)C)c1 (stereo partly drawn) [Biphenyl Analogue] |  | 124 | > 100000 | 159 | 79100 | 118 | 128 | 526 | 41.7 | 1500 | 166 | 629 | 192 | 825 | 214 | 2260 | 214 | 2520 | 240 | 3760 | GI50 (BT-549): 95.3 nM; CC50 (BT-549): 1700 nM

Reference: patent publication US20110105515A1, “TARGETING THE ONCOPROTEIN NUCLEOPHOSMIN” (President and Fellows of Harvard College, priority 2007, published 2011)
